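Cells were grown in 96-well plates and exposed to each compound for 48 hours at five concentrations; endpoints were interpolated linearly between bracketing concentrations, or set to the highest concentration if not reached. GI50: concentration for 50% inhibition of growth. TGI is the concentration that stops growth completely.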 A value given as a limit tells only on which side of the number the result lay.

Among the test systems are SF-295 CNS; RXF 393 renal; SR leukemia; LOX IMVI melanoma; HOP-62 NSCLC; RPMI-8226 leukemia; OVCAR-5 ovarian; HOP-92 NSCLC; NCI-H522 lung; TK-10 renal.
Common to all, as to assay: NCI tumour cell line growth inhibition, 48 h

With `COC1=CC(=O)C(OC)=C(OC)C1=O`, the GI50 in the assay with SF-295 CNS is 17.8 µM; in the assay with RXF 393 renal, 17.1 µM; in the assay with SR leukemia, 2.71 µM; with LOX IMVI melanoma, 12 µM; in the assay with HOP-62 NSCLC, 16.2 µM; in the assay with RPMI-8226 leukemia it was 14.7 µM. Besides, the GI50 with OVCAR-5 ovarian was 17.3 µM; in the assay on HOP-92 NSCLC it was 9.38 µM; with NCI-H522 lung, 3.21 µM; with TK-10 renal, 15.3 µM. For the same compound, the TGI in the assay with SF-295 CNS was 33.5 µM; in the assay on RXF 393 renal, 30.9 µM; in the assay on SR leukemia, 9.04 µM; in the assay with LOX IMVI melanoma, 25.1 µM; with HOP-62 NSCLC it was 29.7 µM; with RPMI-8226 leukemia, 42.9 µM. The TGI was found to be 33 µM with OVCAR-5 ovarian, 22.4 µM in the assay on HOP-92 NSCLC, 17.4 µM with NCI-H522 lung and 30 µM in the assay on TK-10 renal.

For `CCN(CC)c1ccc2c(c1)Oc1nc(N)c(C#N)c(N)c1C2Sc1ccc(OC)cc1` (stereo not given), the GI50 was 1.93 µM in the assay with SF-295 CNS; 1.88 µM in the assay with RXF 393 renal; 1.67 µM with SR leukemia; 1.56 µM with LOX IMVI melanoma; 1.88 µM in the assay on HOP-62 NSCLC; 1.96 µM in the assay on RPMI-8226 leukemia. Also, the GI50 in the assay with OVCAR-5 ovarian is 2.04 µM; in the assay on HOP-92 NSCLC it was 1.86 µM; in the assay with NCI-H522 lung, 1.79 µM; with TK-10 renal it was 2.8 µM. Besides, the TGI with SF-295 CNS was determined as 3.6 µM; in the assay with RXF 393 renal, 3.35 µM; in the assay with SR leukemia, 4.78 µM; with LOX IMVI melanoma, 3.07 µM; in the assay on HOP-62 NSCLC, 3.43 µM; in the assay with RPMI-8226 leukemia, 5.02 µM. In addition, the TGI in the assay with OVCAR-5 ovarian was determined as 4.6 µM; with HOP-92 NSCLC it was 3.37 µM; in the assay with NCI-H522 lung, 3.38 µM; in the assay on TK-10 renal, 4.33 µM.

Consider `O=C(O)CCC/C=C\C[C@H]1C=CC(=O)/C1=C/C[C@@H](O)CCc1cccc(C(F)(F)F)c1`, for which the GI50 in the assay on SF-295 CNS was 2.5 µM; in the assay on RXF 393 renal it was 2 µM; in the assay on SR leukemia, 0.604 µM; in the assay with LOX IMVI melanoma, 1.29 µM; in the assay with HOP-62 NSCLC, 2.93 µM; with RPMI-8226 leukemia, 1.91 µM. Besides, the GI50 is 4.15 µM in the assay on OVCAR-5 ovarian, 3.32 µM with HOP-92 NSCLC, 1.35 µM in the assay on NCI-H522 lung and 4.21 µM with TK-10 renal. Besides, the TGI in the assay with SF-295 CNS was 6.09 µM; with RXF 393 renal, 3.61 µM; in the assay on SR leukemia it was 7.22 µM; in the assay on LOX IMVI melanoma it was 2.89 µM; in the assay with HOP-62 NSCLC it was 7.27 µM; in the assay with RPMI-8226 leukemia, 12.2 µM. In addition, the TGI amounted to 11.8 µM with OVCAR-5 ovarian, 8.2 µM in the assay with HOP-92 NSCLC, 3.8 µM in the assay on NCI-H522 lung and 9.82 µM in the assay on TK-10 renal.

For `O=C(O)c1cc2ccccc2oc1=O`, the TGI in the assay with SF-295 CNS, in the assay on RXF 393 renal, in the assay with SR leukemia, with LOX IMVI melanoma, with HOP-62 NSCLC and in the assay with RPMI-8226 leukemia was greater than 100 µM in each case. The TGI in the assay with OVCAR-5 ovarian, in the assay on HOP-92 NSCLC, in the assay on NCI-H522 lung and in the assay on TK-10 renal was greater than 100 µM throughout.

With `CS(=O)(=O)CCNCc1ccc(-c2ccc3ncnc(Nc4ccc(OCc5cccc(F)c5)c(C(F)(F)F)c4)c3c2)o1`, the GI50 with SF-295 CNS was 4.4 µM; with RXF 393 renal, 2.85 µM; in the assay with SR leukemia, 6.34 µM; with LOX IMVI melanoma, 3.96 µM; in the assay on HOP-62 NSCLC, 4.03 µM; in the assay with RPMI-8226 leukemia, 4.79 µM. Moreover, the GI50 was 5.29 µM with OVCAR-5 ovarian, 0.847 µM in the assay on HOP-92 NSCLC, 3.58 µM with NCI-H522 lung and 4.65 µM in the assay on TK-10 renal. Moreover, the TGI stood at 9.43 µM in the assay with SF-295 CNS; 6.15 µM in the assay on RXF 393 renal; 19.4 µM with SR leukemia; 8.13 µM in the assay with LOX IMVI melanoma; 8.27 µM in the assay on HOP-62 NSCLC; 15.6 µM with RPMI-8226 leukemia. Also, the TGI came to 15 µM in the assay on OVCAR-5 ovarian, 6.34 µM with HOP-92 NSCLC, 7.25 µM in the assay on NCI-H522 lung and 9.82 µM with TK-10 renal.

`COc1ccc(/C=C2\CC(C)CC3C2=NN(C(C)=O)C3c2ccc(OC)cc2)cc1` (stereo not given): the GI50 in the assay with SF-295 CNS was 18.2 µM; in the assay with RXF 393 renal, 27.2 µM; with SR leukemia, 20.4 µM; with LOX IMVI melanoma, 17.6 µM; in the assay with HOP-62 NSCLC it was 20 µM; in the assay with RPMI-8226 leukemia it was 10.9 µM. Moreover, the GI50 in the assay with OVCAR-5 ovarian is 21.6 µM; in the assay with HOP-92 NSCLC, 17.2 µM; in the assay on NCI-H522 lung, 21.5 µM; with TK-10 renal, 30.3 µM. In addition, the TGI in the assay on SF-295 CNS is 41.8 µM; with RXF 393 renal, greater than 100 µM; in the assay with SR leukemia, 50.5 µM; in the assay with LOX IMVI melanoma it was 38.3 µM; in the assay with HOP-62 NSCLC it was 41.4 µM; with RPMI-8226 leukemia, 53.2 µM. For the same compound, the TGI was 48.2 µM in the assay on OVCAR-5 ovarian, 44.2 µM in the assay on HOP-92 NSCLC, 83.9 µM in the assay with NCI-H522 lung and greater than 100 µM in the assay with TK-10 renal.

Values taken from PubChem BioAssay (NCI).
